Patent publication US9458202B2, “Peptidomimetic macrocycles with improved properties” (Aileron Therapeutics, Inc., priority 2008, dated 2016)
Where a SMILES comes first, the peptide text is derived from it. Bridges are numbered along the chain shown (N, C = ends). [ ]: non-standard residue; d: D form. S5 = C=CCCC[C@](C)(N)C(=O)O; Nle = CCCC[C@H](N)C(=O)O

How the values were obtained:
Figure 2 = assay: Figure 2; parameters: AUCall: concentration or dose not given beside the values; settings: for C0 / half-life / MRT: Sprague-Dawley, rat, plasma, iv; for MRT: read-out: MRTinf_obs
Method: Table printed on a drawing sheet, Figure 2
Footnotes: 2 mg/mL iv bolus in Sprague-Dawley rats (10 mg/kg) / * 0.6 mg/mL iv bolus in Sprague-Dawley rats (3 mg/kg)
The patent's description of the figure: FIG. 2 lists the in vivo half-lives of peptidomimetic macrocycles of the invention. Half-lives were measured in Sprague Dawley rats after one intravenous bolus injection at 0.6 mg/mL or 2 mg/mL of each unlabeled peptidomimetic macrocycle at a 3 mg/kg or 10 mg/kg dose, respectively. Three animals were used per compound and concentrations were determined by mass-spectrometric analysis of blood levels (plasma).
First reader's note: An asterisk before the peptide name marks dosing at 3 mg/kg (0.6 mg/mL) instead of 10 mg/kg (2 mg/mL).

circular dichroism = assay: circular dichroism; parameters: unit not given here; settings: 20 mM phosphoric acid; pH 2.0; 5 °C; 0.05 mg/mL

CCCC[C@H](NC(=O)[C@H](CO)NC(=O)[C@H](CC(=O)O)NC(=O)CNC(=O)[C@@H](NC(=O)[C@H](CCC(N)=O)NC(=O)[C@H](C)NC(=O)[C@H](CC(C)C)NC(=O)[C@H](Cc1c[nH]cn1)NC(=O)[C@H](CCCNC(=N)N)NC(=O)[C@H](C)NC(=O)[C@@H](NC(=O)[C@H](CC(N)=O)NC(=O)[C@H](CCCNC(=N)N)NC(=O)[C@@H](NC(=O)[C@@H](NC(=O)[C@H](CC(=O)O)NC(C)=O)[C@@H](C)CC)[C@@H](C)CC)[C@@H](C)CC)C(C)C)C(=O)N[C@@H](CC(=O)O)C(=O)N[C@@H](CCCNC(=N)N)C(=O)N[C@@H](CO)C(=O)N[C@H](C(N)=O)[C@@H](C)CC [*SP11] (Ac-DIIRNIARHLAQVGDS[Nle]DRSI-NH2)
AUCall (Figure 2): 1136 ng·h/mL | Cl_obs (Figure 2): 45.53 mL/min/kg | C0 (Figure 2): 1080 ng/mL | half-life (Figure 2): 1.3 h | MRT (Figure 2): 1.6 h | helicity (circular dichroism): -1890

CCCC[C@H](NC(=O)[C@]1(C)CCCC=CCCCC2(CCCC=CCCC[C@@](C)(NC(=O)[C@H](C)NC(=O)[C@@H](NC(=O)[C@H](CC(N)=O)NC(=O)[C@H](CCCNC(=N)N)NC(=O)[C@@H](NC(=O)[C@@H](NC(=O)[C@H](CC(=O)O)NC(C)=O)[C@@H](C)CC)[C@@H](C)CC)[C@@H](C)CC)C(=O)N[C@@H](Cc3c[nH]cn3)C(=O)N[C@@H](CC(C)C)C(=O)N[C@@H](C)C(=O)N2)C(=O)N[C@@H](C(C)C)C(=O)NCC(=O)N[C@@H](CC(=O)O)C(=O)N1)C(=O)N[C@@H](CC(=O)O)C(=O)N[C@@H](CCCNC(=N)N)C(=O)N[C@@H](CO)C(=O)N[C@H](C(N)=O)[C@@H](C)CC (stereo partly shown) [*SP13]
AUCall (Figure 2): 82965 ng·h/mL | Cl_obs (Figure 2): 0.44 mL/min/kg | C0 (Figure 2): 6100 ng/mL | half-life (Figure 2): 9.5 h | MRT (Figure 2): 13.2 h | helicity (circular dichroism): -5450

CCCC[C@H](NC(=O)[C@@]1(C)CCCC=CCCCC2(CCCC=CCCC[C@](C)(NC(=O)[C@H](C)NC(=O)[C@@H](NC(=O)[C@H](CC(N)=O)NC(=O)[C@H](CCCNC(=N)N)NC(=O)[C@@H](NC(=O)[C@@H](NC(=O)[C@H](CC(=O)O)NC(C)=O)[C@@H](C)CC)[C@@H](C)CC)[C@@H](C)CC)C(=O)N[C@@H](Cc3c[nH]cn3)C(=O)N[C@@H](CC(C)C)C(=O)N[C@@H](C)C(=O)N2)C(=O)N[C@@H](C(C)C)C(=O)NCC(=O)N[C@@H](CC(=O)O)C(=O)N1)C(=O)N[C@@H](CC(=O)O)C(=O)N[C@@H](CCCNC(=N)N)C(=O)N[C@@H](CO)C(=O)N[C@H](C(N)=O)[C@@H](C)CC (stereo partly shown) [*SP14]
AUCall (Figure 2): 74344 ng·h/mL | Cl_obs (Figure 2): 0.727 mL/min/kg | C0 (Figure 2): 7200 ng/mL | half-life (Figure 2): 6.7 h | MRT (Figure 2): 8.7 h | helicity (circular dichroism): -5840

CC[C@H](C)[C@H](NC(C)=O)C(=O)N[C@@H](Cc1c[nH]c2ccccc12)C(=O)N[C@H](C(=O)N[C@@H](C)C(=O)N[C@@H](CCC(N)=O)C(=O)N[C@@H](C)C(=O)N[C@@H](CC(C)C)C(=O)N[C@@H](CCCNC(=N)N)C(=O)N[C@@H](CCCNC(=N)N)C(=O)N[C@H](C(=O)NCC(=O)N[C@@H](CC(=O)O)C(=O)N[C@@H](CCC(=O)O)C(=O)N[C@@H](Cc1ccccc1)C(=O)N[C@@H](CC(N)=O)C(=O)N[C@@H](C)C(=O)N[C@@H](Cc1ccc(O)cc1)C(=O)N[C@@H](Cc1ccc(O)cc1)C(=O)N[C@@H](C)C(=O)N[C@@H](CCCNC(=N)N)C(=O)N[C@@H](CCCNC(=N)N)C(N)=O)[C@@H](C)CC)[C@@H](C)CC [*SP15]
AUCall (Figure 2): 8430 ng·h/mL | Cl_obs (Figure 2): 7.467 mL/min/kg | C0 (Figure 2): 48000 ng/mL | half-life (Figure 2): 0.4 h | MRT (Figure 2): 0.2 h | helicity (circular dichroism): -2000

CC[C@H](C)[C@H](NC(C)=O)C(=O)N[C@@]1(C)CCCC=CCCC[C@@](C)(C(=O)N[C@@H](CC(C)C)C(=O)N[C@@H](CCCNC(=N)N)C(=O)N[C@@]2(C)CCCC=CCCC[C@@](C)(C(=O)N[C@@H](Cc3ccccc3)C(=O)N[C@@H](CC(N)=O)C(=O)N[C@@H](C)C(=O)N[C@@H](Cc3ccc(O)cc3)C(=O)N[C@@H](Cc3ccc(O)cc3)C(=O)N[C@@H](C)C(=O)N[C@@H](CCCNC(=N)N)C(=O)N[C@@H](CCCNC(=N)N)C(N)=O)NC(=O)[C@H](CC(=O)O)NC(=O)CNC(=O)[C@H]([C@@H](C)CC)NC2=O)NC(=O)[C@H](CCC(N)=O)NC(=O)[C@H](C)NC(=O)[C@H]([C@@H](C)CC)NC1=O [*SP16]
AUCall (Figure 2): 125889 ng·h/mL | Cl_obs (Figure 2): 0.4 mL/min/kg | C0 (Figure 2): 22900 ng/mL | half-life (Figure 2): 4.5 h | MRT (Figure 2): 4.4 h | helicity (circular dichroism): -14400

CC(=O)N[C@@H](CCC(N)=O)C(=O)N[C@@H](CO)C(=O)N[C@@]1(C)CCCC=CCCCC2(CCCC=CCCCCCC[C@@](C)(C(=O)N[C@@H](CCC(N)=O)C(=O)N[C@@H](CC(N)=O)C(N)=O)NC(=O)[C@H](CC(C)C)NC(=O)[C@H](CC(C)C)NC(=O)[C@H](CCCNC(=N)N)NC(=O)[C@H](Cc3c[nH]c4ccccc34)NC(=O)[C@H](CC(C)C)NC(=O)[C@H](CC(N)=O)NC2=O)NC(=O)[C@H](Cc2ccccc2)NC(=O)[C@H]([C@@H](C)O)NC(=O)[C@H](CCC(N)=O)NC1=O (stereo partly shown) [*SP17]
AUCall (Figure 2): 102958 ng·h/mL | Cl_obs (Figure 2): 0.995 mL/min/kg | C0 (Figure 2): 72800 ng/mL | half-life (Figure 2): 3.3 h | MRT (Figure 2): 3 h | helicity (circular dichroism): -12300

CC[C@H](C)[C@H](NC(C)=O)C(=O)N[C@@H](Cc1c[nH]c2ccccc12)C(=O)N[C@H](C(=O)N[C@@H](C)C(=O)N[C@]1(C)CCCC=CCCCC2(CCCC=CCCC[C@@](C)(C(=O)N[C@@H](Cc3ccccc3)C(=O)N[C@@H](CC(N)=O)C(=O)N[C@@H](C)C(=O)N[C@@H](Cc3ccc(O)cc3)C(=O)N[C@@H](Cc3ccc(O)cc3)C(=O)N[C@@H](C)C(=O)N[C@@H](CCCNC(=N)N)C(=O)N[C@@H](CCCNC(=N)N)C(N)=O)NC(=O)[C@H](CC(=O)O)NC(=O)CNC(=O)[C@H]([C@@H](C)CC)NC2=O)NC(=O)[C@H](CCCNC(=N)N)NC(=O)[C@H](CC(C)C)NC(=O)[C@H](C)NC1=O)[C@@H](C)CC (stereo partly shown) [*SP20]
AUCall (Figure 2): 15000 ng·h/mL | Cl_obs (Figure 2): 3.017 mL/min/kg | C0 (Figure 2): 1950 ng/mL | half-life (Figure 2): 10.8 h | MRT (Figure 2): 14.1 h | helicity (circular dichroism): -19200

CC[C@H](C)[C@H](NC(C)=O)C(=O)N[C@@H](Cc1c[nH]c2ccccc12)C(=O)N[C@H](C(=O)N[C@@H](C)C(=O)N[C@@]1(C)CCCC=CCCCC2(CCCC=CCCCCCC[C@@](C)(C(=O)N[C@@H](Cc3ccc(O)cc3)C(=O)N[C@@H](Cc3ccc(O)cc3)C(=O)N[C@@H](C)C(=O)N[C@@H](CCCNC(=N)N)C(=O)N[C@@H](CCCNC(=N)N)C(N)=O)NC(=O)[C@H](CC(N)=O)NC(=O)[C@H](Cc3ccccc3)NC(=O)[C@H](CCC(=O)O)NC(=O)[C@H](CC(=O)O)NC(=O)CNC(=O)[C@H]([C@@H](C)CC)NC2=O)NC(=O)[C@H](CCCNC(=N)N)NC(=O)[C@H](CC(C)C)NC(=O)[C@H](C)NC1=O)[C@@H](C)CC (stereo partly shown) [*SP21]
AUCall (Figure 2): 7000 ng·h/mL | Cl_obs (Figure 2): 6.977 mL/min/kg | C0 (Figure 2): 1450 ng/mL | half-life (Figure 2): 5.7 h | MRT (Figure 2): 6.6 h | helicity (circular dichroism): -11200

CCCC[C@H](NC(=O)[C@]1(C)CCCC=CCCC[C@](C)(NC(=O)[C@H](C)NC(=O)[C@H](CC(C)C)NC(=O)[C@H](Cc2c[nH]cn2)NC(=O)[C@H](CCCNC(=N)N)NC(=O)[C@H](C)NC(=O)[C@@H](NC(=O)[C@H](CC(N)=O)NC(=O)[C@H](CCCNC(=N)N)NC(=O)[C@@H](NC(=O)[C@@H](NC(=O)[C@H](CC(=O)O)NC(C)=O)[C@@H](C)CC)[C@@H](C)CC)[C@@H](C)CC)C(=O)N[C@@H](C(C)C)C(=O)NCC(=O)N[C@@H](CC(=O)O)C(=O)N1)C(=O)N[C@@H](CC(=O)O)C(=O)N[C@@H](CCCNC(=N)N)C(=O)N[C@@H](CO)C(=O)N[C@H](C(N)=O)[C@@H](C)CC [SP1] (Ac-DIIRNIARHLA[S5]VGD[S5][Nle]DRSI-NH2; staple 12-16)
AUCall (Figure 2): 268275 ng·h/mL | Cl_obs (Figure 2): 0.737 mL/min/kg | C0 (Figure 2): 154000 ng/mL | helicity (circular dichroism): -8150

CC[C@H](C)[C@H](NC(C)=O)C(=O)N[C@@H](Cc1c[nH]c2ccccc12)C(=O)N[C@H](C(=O)N[C@@H](C)C(=O)N[C@@H](CCC(N)=O)C(=O)N[C@@H](C)C(=O)N[C@@H](CC(C)C)C(=O)N[C@@H](CCCNC(=N)N)C(=O)N[C@@]1(C)CCCC=CCCC[C@@](C)(C(=O)N[C@@H](Cc2ccccc2)C(=O)N[C@@H](CC(N)=O)C(=O)N[C@@H](C)C(=O)N[C@@H](Cc2ccc(O)cc2)C(=O)N[C@@H](Cc2ccc(O)cc2)C(=O)N[C@@H](C)C(=O)N[C@@H](CCCNC(=N)N)C(=O)N[C@@H](CCCNC(=N)N)C(N)=O)NC(=O)[C@H](CC(=O)O)NC(=O)CNC(=O)[C@H]([C@@H](C)CC)NC1=O)[C@@H](C)CC [SP9]
AUCall (Figure 2): 124448 ng·h/mL | Cl_obs (Figure 2): 0.83 mL/min/kg | C0 (Figure 2): 159000 ng/mL | half-life (Figure 2): 7.3 h | MRT (Figure 2): 4.5 h | helicity (circular dichroism): -14900

Ac-QSQQTFSNLWRLLPQN-NH2 [*SP22]
AUCall (Figure 2): 75 ng·h/mL | Cl_obs (Figure 2): 700 mL/min/kg | C0 (Figure 2): 15100 ng/mL | half-life (Figure 2): < 0.1 h | MRT (Figure 2): < 0.1 h | helicity (circular dichroism): -646
